{"source": "paper PMC7763892", "about": "“Anti-Inflammatory Effect of Homo- and Heterodimers of Natural Enkephalinase Inhibitors in Experimental Colitis in Mice” (Molecules, 2020)", "key": {"[1]": {"conditions": "cited from earlier work"}, "TNBS-induced colitis": {"test_system": "TNBS-induced colitis", "conditions": "mouse model; cited from earlier work"}, "[2]": {"biological_target": "neutral endopeptidase (NEP) (Homo sapiens, UniProt P08473)", "sequence (P08473 whole entry, species assumed)": "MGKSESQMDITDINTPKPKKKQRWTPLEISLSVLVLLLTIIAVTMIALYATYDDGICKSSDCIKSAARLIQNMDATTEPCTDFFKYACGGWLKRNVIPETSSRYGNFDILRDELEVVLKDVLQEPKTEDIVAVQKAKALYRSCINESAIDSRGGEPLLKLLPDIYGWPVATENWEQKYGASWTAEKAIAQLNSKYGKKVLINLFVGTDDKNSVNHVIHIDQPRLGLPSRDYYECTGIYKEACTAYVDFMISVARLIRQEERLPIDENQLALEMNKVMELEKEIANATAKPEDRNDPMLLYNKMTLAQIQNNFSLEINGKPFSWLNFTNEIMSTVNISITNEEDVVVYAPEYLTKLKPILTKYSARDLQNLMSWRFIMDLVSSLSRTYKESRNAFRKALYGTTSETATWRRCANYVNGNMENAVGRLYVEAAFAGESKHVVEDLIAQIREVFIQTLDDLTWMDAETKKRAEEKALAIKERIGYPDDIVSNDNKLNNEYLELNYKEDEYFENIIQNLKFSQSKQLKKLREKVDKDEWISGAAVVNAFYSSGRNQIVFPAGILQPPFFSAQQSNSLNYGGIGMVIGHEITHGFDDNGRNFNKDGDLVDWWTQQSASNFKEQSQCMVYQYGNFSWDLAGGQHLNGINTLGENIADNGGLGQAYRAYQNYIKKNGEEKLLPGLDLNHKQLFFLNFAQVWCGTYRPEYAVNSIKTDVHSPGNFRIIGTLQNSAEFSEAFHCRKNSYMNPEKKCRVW", "conditions": "Tris-HCl buffer 50 mM, pH 7.4, 37 °C, RP-HPLC, mean ± SEM, ref Sobocińska et al. [24], cited from earlier work"}, "[3]": {"test": "Stability in human plasma", "format": "in vitro ADME", "conditions": "RP-HPLC", "procedure": "Plasma-stability assays were performed, as described previously. The sample preparation and the analysis of peptide I were both performed in the same way as in our previous work. Peptides III and X were analyzed by RP-HPLC using a linear gradient of 20–80% B over 20 min with the same solvent system of 0.1% TFA in water (A) and 0.1% TFA in acetonitrile (B), with a flow rate of 1.5 mL/min. All measurements were performed in triplicate."}, "[4]": {"test": "Solubility in Tris-HCl buffer", "format": "physicochemical", "conditions": "Tris-HCl buffer + 3% DMSO", "procedure": "The designed dimers (peptides IX–XI) were sparingly soluble in Tris-HCl buffer. To improve their solubility in Tris-HCl buffer, 3% DMSO was added to the samples. […] In the time of analysis of spinorphin (III) and peptide IV, products with the same retention time as the analyzed substrate, were created, which made determining the inhibitory activity of the investigated peptides against NEP impossible."}, "[5]": {"conditions": "cited from earlier work", "procedure": "In stability assays in human plasma, peptide X was included because this compound was selected for in vivo assays of the anti-inflammatory activity. […] After 2 h of incubation, the levels of peptide X were, respectively, 10.3 and ...", "remark": "listed apart in the source"}}, "note": "Where a SMILES comes first, the peptide text is derived from it."}
{"compound": "Opiorphin (Gln-Arg-Phe-Ser-Arg) [II]", "values": [{"measurement": "amount that disappears in human plasma because of potential complex formation", "setting": "[1]", "result": 12, "unit": "%"}, {"measurement": "metabolic half-life in human plasma", "setting": "[1]", "result": 5, "unit": "min"}, {"measurement": "disappearance in human plasma by cyclization of Gln1 to Glp", "setting": "[1]; maximum", "result": "≤ 16", "unit": "%"}, {"measurement": "anti-inflammatory effect in TNBS-induced colitis", "setting": "TNBS-induced colitis", "result": "lack of a anti-inflammatory effect"}]}
{"compound": "Gln-His-Asn-Pro-Arg [Peptide I, Sialorphin (Gln-His-Asn-Pro-Arg)]", "values": [{"measurement": "1000 × k, degradation rate of Met-enkephalin incubated with NEP and peptide", "setting": "[2]; without inhibitor 25.35 ± 1.05", "result": "8.84 ± 0.27 ** 1/min"}, {"measurement": "t1/2, half-life of Met-enkephalin incubated with NEP and peptide", "setting": "[2]; without inhibitor 27 ± 1", "result": "78 ± 2", "unit": "min"}]}
{"compound": "CC(C)C[C@H](NC(=O)[C@@H](N)CSSC[C@H](N)C(=O)N[C@@H](CCC(N)=O)C(=O)N[C@@H](Cc1c[nH]cn1)C(=O)N[C@@H](CC(N)=O)C(=O)N1CCC[C@H]1C(=O)N[C@@H](CCCNC(=N)N)C(=O)O)C(=O)N[C@H](C(=O)N[C@H](C(=O)N[C@@H](Cc1ccc(O)cc1)C(=O)N1CCC[C@H]1C(=O)N[C@@H](Cc1c[nH]c2ccccc12)C(=O)N[C@H](C(=O)O)[C@@H](C)O)C(C)C)C(C)C", "note": "[Peptide X, Cys-Gln-His-Asn-Pro-Arg │ Cys-Leu-Val-Val-Tyr-Pro-Trp-Thr] (HELM PEPTIDE1{C.L.V.V.Y.P.W.T}|PEPTIDE2{C.Q.H.N.P.R}$PEPTIDE1,PEPTIDE2,1:R3-1:R3$$$V2.0)", "values": [{"measurement": "level of peptide in human plasma after 2 h relative to spinorphin", "setting": "[3]; 2 h incubation, times higher", "result": 4, "unit": "times"}, {"measurement": "remaining at 4 h", "setting": "[3]; 4 h incubation, triplicate, read-out: % of remaining peptide in human plasma after 4 h", "result": 42, "unit": "%"}, {"measurement": "remaining at 24 h", "setting": "[3]; 24 h incubation, triplicate, read-out: % of remaining peptide in human plasma after 24 h", "result": 8, "unit": "%"}]}
{"compound": "Pal-KKQRFSR", "values": [{"measurement": "anti-inflammatory effect in TNBS-induced colitis", "setting": "TNBS-induced colitis", "result": "lack of a anti-inflammatory effect"}]}
{"compound": "CC(C)C[C@H](NC(=O)[C@@H](N)CSSC[C@H](N)C(=O)N[C@@H](CC(C)C)C(=O)N[C@H](C(=O)N[C@H](C(=O)N[C@@H](Cc1ccc(O)cc1)C(=O)N1CCC[C@H]1C(=O)N[C@@H](Cc1c[nH]c2ccccc12)C(=O)N[C@H](C(=O)O)[C@@H](C)O)C(C)C)C(C)C)C(=O)N[C@H](C(=O)N[C@H](C(=O)N[C@@H](Cc1ccc(O)cc1)C(=O)N1CCC[C@H]1C(=O)N[C@@H](Cc1c[nH]c2ccccc12)C(=O)N[C@H](C(=O)O)[C@@H](C)O)C(C)C)C(C)C", "note": "[IX, (Cys-Leu-Val-Val-Tyr-Pro-Trp-Thr)2] (HELM PEPTIDE1{C.L.V.V.Y.P.W.T}|PEPTIDE2{C.L.V.V.Y.P.W.T}$PEPTIDE1,PEPTIDE2,1:R3-1:R3$$$V2.0)", "values": [{"measurement": "solubility in Tris-HCl buffer with 3% DMSO", "setting": "[4]", "result": "did not help to dissolve"}]}
{"compound": "Sialorphin (Gln-His-Asn-Pro-Arg) [Peptide I]", "values": [{"measurement": "anti-inflammatory effect in TNBS-induced colitis", "setting": "TNBS-induced colitis", "result": "potent anti-inflammatory activity"}, {"measurement": "remaining peptide in human plasma after 4 h", "setting": "[5]; 4 h incubation, RP-HPLC, ref Sobocinska et al. [21]", "result": "completely decomposed"}, {"measurement": "stability in human plasma", "setting": "[5]", "result": "sensitive to degradation"}]}
{"compound": "CC(C)C[C@H](N)C(=O)N[C@H](C(=O)N[C@H](C(=O)N[C@@H](Cc1ccc(O)cc1)C(=O)N1CCC[C@H]1C(=O)N[C@@H](Cc1c[nH]c2ccccc12)C(=O)N[C@H](C(=O)O)[C@@H](C)O)C(C)C)C(C)C", "note": "[III, Spinorphin (Leu-Val-Val-Tyr-Pro-Trp-Thr)] (H-LVVYPWT-OH)", "values": [{"measurement": "% of remaining peptide in human plasma after 4 h", "setting": "[3]; 4 h incubation, triplicate", "result": "completely decomposed"}]}
